The values that follow come from ChEMBL document CHEMBL4390652, “Design, biological evaluation and X-ray crystallography of nanomolar multifunctional ligands targeting simultaneously acetylcholinesterase and glycogen synthase kinase-3” (Eur J Med Chem, 2019).

Assay [1] deals with Activin receptor type-1B (Homo sapiens) (UniProt P36896). As to the kind of experiment: Binding affinity to wild-type human ACVR1B (S187 to I505 residues) expressed in bacterial expression system assessed as residual binding level at 10 uM by Kinomescan method relative to control.
Chain of Activin receptor type-1B (Homo sapiens) (P36896 whole entry, the tested form may be a part): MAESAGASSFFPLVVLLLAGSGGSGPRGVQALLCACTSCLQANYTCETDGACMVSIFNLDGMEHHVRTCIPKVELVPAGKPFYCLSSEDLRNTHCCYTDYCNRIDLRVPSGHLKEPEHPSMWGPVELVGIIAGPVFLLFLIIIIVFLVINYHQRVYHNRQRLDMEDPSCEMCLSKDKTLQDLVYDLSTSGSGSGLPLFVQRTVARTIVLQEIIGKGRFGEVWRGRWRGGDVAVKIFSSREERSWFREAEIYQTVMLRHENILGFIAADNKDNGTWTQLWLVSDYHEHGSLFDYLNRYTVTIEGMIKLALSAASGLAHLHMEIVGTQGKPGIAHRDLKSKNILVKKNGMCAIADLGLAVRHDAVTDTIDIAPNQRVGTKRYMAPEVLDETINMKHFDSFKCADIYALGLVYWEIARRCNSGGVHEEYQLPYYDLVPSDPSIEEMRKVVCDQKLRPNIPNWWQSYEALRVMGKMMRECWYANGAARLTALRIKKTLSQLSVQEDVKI
The target in assay [2] is Serine/threonine-protein kinase B-raf (Homo sapiens) (UniProt P15056). The experiment in a line: Binding affinity to wild-type human partial length BRAF (S429 to E741 residues) expressed in mammalian expression system assessed as residual binding level at 10 uM by Kinomescan method relative to control.
The target in assay [3] is Casein kinase I isoform alpha (Homo sapiens) (UniProt P48729). The experiment in a line: Binding affinity to wild-type human partial length CSNK1A1 (M1 to L450 residues) expressed in mammalian expression system assessed as residual binding level at 10 uM by Kinomescan method relative to control.
The target of assay [4] is Casein kinase II subunit alpha (Homo sapiens) (UniProt P68400). The experiment in a line: Binding affinity to wild-type human full length CSNK2A1 (M1 to Q391 residues) expressed in mammalian expression system assessed as residual binding level at 10 uM by Kinomescan method relative to control.
Chain of Casein kinase II subunit alpha (Homo sapiens) (P68400 whole entry, looked up, the tested form may be a part): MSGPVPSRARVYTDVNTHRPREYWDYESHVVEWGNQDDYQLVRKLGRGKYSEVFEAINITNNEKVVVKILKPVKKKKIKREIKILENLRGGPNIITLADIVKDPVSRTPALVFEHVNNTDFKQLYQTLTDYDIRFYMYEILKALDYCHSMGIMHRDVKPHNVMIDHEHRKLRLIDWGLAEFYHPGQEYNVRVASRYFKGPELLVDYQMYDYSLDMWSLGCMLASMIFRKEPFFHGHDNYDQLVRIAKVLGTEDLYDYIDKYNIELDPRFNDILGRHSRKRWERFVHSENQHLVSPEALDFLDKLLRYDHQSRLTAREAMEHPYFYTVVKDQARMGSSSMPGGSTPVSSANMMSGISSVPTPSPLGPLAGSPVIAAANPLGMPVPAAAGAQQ
Assay [5] has as its target Epithelial discoidin domain-containing receptor 1 (Homo sapiens) (UniProt Q08345). The experiment in a line: Binding affinity to wild-type human partial length DDR1 (R565 to V876 residues) expressed in bacterial expression system assessed as residual binding level at 10 uM by Kinomescan method relative to control.
In assay [6] the target is Ephrin type-A receptor 3 (Homo sapiens) (UniProt P29320). The experiment in a line: Binding affinity to wild-type human partial length EPHA3 (D604 to K889 residues) expressed in bacterial expression system assessed as residual binding level at 10 uM by Kinomescan method relative to control.
Assay [7] has as its target Fibroblast growth factor receptor 4 (Homo sapiens) (UniProt P22455). The experiment in a line: Binding affinity to wild-type human partial length FGFR4 (G402 to E713 residues) expressed in bacterial expression system assessed as residual binding level at 10 uM by Kinomescan method relative to control.
Assay [8] relates to Receptor-type tyrosine-protein kinase FLT3 (Homo sapiens), P36888 [K663Q]. As to the kind of experiment: Binding affinity to human partial length FLT3 K663Q mutant (V592 to Y969 residues) expressed in bacterial expression system assessed as residual binding level at 10 uM by Kinomescan method relative to control.
The target in assay [9] is Tyrosine-protein kinase JAK2 (Homo sapiens) (UniProt O60674). The experiment in a line: Binding affinity to wild-type human partial length JAK2 JH1 catalytic domain (A829 to G1132 residues) expressed in mammalian expression system assessed as residual binding level at 10 uM by Kinomescan method relative to control.
Assay [10] concerns the target Mast/stem cell growth factor receptor Kit (Homo sapiens) (UniProt P10721). The experiment in a line: Binding affinity to wild-type human partial length autoinhibited KIT (Y545 to D952 residues) expressed in mammalian expression system assessed as residual binding level at 10 uM by Kinomescan method relative to control.
Assay [11] addresses Serine/threonine-protein kinase 10 (Homo sapiens) (UniProt O94804). As to the kind of experiment: Binding affinity to wild-type human partial length LOK (E16 to V314 residues) expressed in bacterial expression system assessed as residual binding level at 10 uM by Kinomescan method relative to control.
Assay [12] addresses Serine/threonine-protein kinase 26 (Homo sapiens) (UniProt Q9P289). The experiment in a line: Binding affinity to wild-type human full length MST4 (M1 to P416 residues) expressed in mammalian expression system assessed as residual binding level at 10 uM by Kinomescan method relative to control.
Assay [13] deals with Serine/threonine-protein kinase Nek2 (Homo sapiens) (UniProt P51955). As to the kind of experiment: Binding affinity to wild-type human partial length NEK2 (M1 to K309 residues) expressed in bacterial expression system assessed as residual binding level at 10 uM by Kinomescan method relative to control.
The target of assay [14] is Platelet-derived growth factor receptor alpha (Homo sapiens) (UniProt P16234). The experiment in a line: Binding affinity to wild-type human partial length PDGFRA (V575 to D1002 residues) expressed in mammalian expression system assessed as residual binding level at 10 uM by Kinomescan method relative to control.
Assay [15] concerns the target Phosphatidylinositol 4,5-bisphosphate 3-kinase catalytic subunit delta isoform (Homo sapiens) (UniProt O00329). As to the kind of experiment: Binding affinity to wild-type human partial length PIK3CD (R108 to Q1044 residues) expressed in mammalian expression system assessed as residual binding level at 10 uM by Kinomescan method relative to control.
Assay [16] addresses Phosphatidylinositol 5-phosphate 4-kinase type-2 beta (Homo sapiens) (UniProt P78356). The experiment in a line: Binding affinity to wild-type human full length PIP5K2B (M1 to T416 residues) expressed in bacterial expression system assessed as residual binding level at 10 uM by Kinomescan method relative to control.
In assay [17] the target is Serine/threonine-protein kinase SIK3 (Homo sapiens) (UniProt Q9Y2K2). As to the kind of experiment: Binding affinity to wild-type human partial length QSK (A90 to L395 residues) expressed in mammalian expression system assessed as residual binding level at 10 uM by Kinomescan method relative to control.
Chain of Serine/threonine-protein kinase SIK3 (Homo sapiens) (Q9Y2K2 whole entry, looked up, the tested form may be a part): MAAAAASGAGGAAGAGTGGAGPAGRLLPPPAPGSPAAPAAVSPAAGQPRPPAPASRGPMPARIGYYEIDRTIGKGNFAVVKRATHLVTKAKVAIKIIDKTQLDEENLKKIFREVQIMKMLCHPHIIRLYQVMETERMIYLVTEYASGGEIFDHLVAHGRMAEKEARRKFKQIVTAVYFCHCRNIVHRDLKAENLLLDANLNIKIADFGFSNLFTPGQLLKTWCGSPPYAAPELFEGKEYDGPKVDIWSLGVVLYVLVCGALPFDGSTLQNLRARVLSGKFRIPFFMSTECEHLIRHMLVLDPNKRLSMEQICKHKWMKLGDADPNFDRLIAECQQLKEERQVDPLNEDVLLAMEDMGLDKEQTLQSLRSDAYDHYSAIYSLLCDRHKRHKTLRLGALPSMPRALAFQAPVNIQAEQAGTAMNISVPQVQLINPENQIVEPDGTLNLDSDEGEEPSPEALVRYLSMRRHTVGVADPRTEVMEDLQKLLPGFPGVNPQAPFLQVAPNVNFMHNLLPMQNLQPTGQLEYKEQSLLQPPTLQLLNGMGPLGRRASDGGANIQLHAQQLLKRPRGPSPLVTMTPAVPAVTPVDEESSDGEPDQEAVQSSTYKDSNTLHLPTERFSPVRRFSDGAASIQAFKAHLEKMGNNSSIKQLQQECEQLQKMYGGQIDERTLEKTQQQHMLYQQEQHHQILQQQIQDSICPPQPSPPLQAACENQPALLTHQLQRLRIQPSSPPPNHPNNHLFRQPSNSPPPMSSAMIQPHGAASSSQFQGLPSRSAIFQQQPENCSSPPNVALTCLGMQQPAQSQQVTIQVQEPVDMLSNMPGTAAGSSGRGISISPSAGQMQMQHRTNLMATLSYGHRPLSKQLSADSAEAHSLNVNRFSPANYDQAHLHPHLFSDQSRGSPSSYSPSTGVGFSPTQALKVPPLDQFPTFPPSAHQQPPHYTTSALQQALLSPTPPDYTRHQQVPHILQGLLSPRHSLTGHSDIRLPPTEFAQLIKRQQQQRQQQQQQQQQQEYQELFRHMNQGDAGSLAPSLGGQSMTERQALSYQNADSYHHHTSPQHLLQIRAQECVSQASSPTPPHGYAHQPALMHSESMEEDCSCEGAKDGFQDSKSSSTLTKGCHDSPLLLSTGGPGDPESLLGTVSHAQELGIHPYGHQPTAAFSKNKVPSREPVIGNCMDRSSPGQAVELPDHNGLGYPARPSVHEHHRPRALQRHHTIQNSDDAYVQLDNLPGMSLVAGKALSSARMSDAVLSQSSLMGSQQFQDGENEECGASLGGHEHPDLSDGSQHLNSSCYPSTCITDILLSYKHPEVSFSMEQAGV
Assay [18] deals with Serine/threonine-protein kinase RIO3 (Homo sapiens) (UniProt O14730). As to the kind of experiment: Binding affinity to wild-type human full length RIOK3 (M1 to E519 residues) expressed in bacterial expression system assessed as residual binding level at 10 uM by Kinomescan method relative to control.
Chain of Serine/threonine-protein kinase RIO3 (Homo sapiens) (O14730 whole entry, the tested form may be a part): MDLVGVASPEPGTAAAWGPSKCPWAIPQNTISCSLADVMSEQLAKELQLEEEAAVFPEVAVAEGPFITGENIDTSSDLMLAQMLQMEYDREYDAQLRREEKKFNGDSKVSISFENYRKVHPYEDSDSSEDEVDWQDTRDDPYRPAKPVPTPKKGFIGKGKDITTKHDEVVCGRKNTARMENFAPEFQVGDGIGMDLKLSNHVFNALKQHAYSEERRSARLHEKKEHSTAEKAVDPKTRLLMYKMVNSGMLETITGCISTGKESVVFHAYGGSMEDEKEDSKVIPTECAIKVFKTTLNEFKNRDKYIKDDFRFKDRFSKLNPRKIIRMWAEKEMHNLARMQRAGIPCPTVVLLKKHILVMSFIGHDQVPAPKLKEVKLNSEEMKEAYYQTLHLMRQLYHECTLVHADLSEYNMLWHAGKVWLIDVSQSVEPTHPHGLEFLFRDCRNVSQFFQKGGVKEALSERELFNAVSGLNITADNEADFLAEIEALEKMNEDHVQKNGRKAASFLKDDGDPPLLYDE
Assay [19] concerns the target Receptor-interacting serine/threonine-protein kinase 4 (Homo sapiens) (UniProt P57078). The experiment in a line: Binding affinity to wild-type human partial length RIPK4 (M1 to V303 residues) expressed in mammalian expression system assessed as residual binding level at 10 uM by Kinomescan method relative to control.
Assay [20] concerns the target Testis-specific serine/threonine-protein kinase 1 (Homo sapiens) (UniProt Q9BXA7). The experiment in a line: Binding affinity to wild-type human full length TSSK1B (M1 to Q367 residues) expressed in bacterial expression system assessed as residual binding level at 10 uM by Kinomescan method relative to control.
In assay [21] the target is Non-receptor tyrosine-protein kinase TYK2 (Homo sapiens) (UniProt P29597). The experiment in a line: Binding affinity to wild-type human partial length TYK2 JH2 pseudokinase domain (G556 to D888 residues) expressed in mammalian expression system assessed as residual binding level at 10 uM by Kinomescan method relative to control.
The target in assay [22] is Serine/threonine-protein kinase ULK3 (Homo sapiens) (UniProt Q6PHR2). The experiment in a line: Binding affinity to wild-type human partial length ULK3 (M1 to Q290 residues) expressed in mammalian expression system assessed as residual binding level at 10 uM by Kinomescan method relative to control.
The target in assay [23] is Wee1-like protein kinase 2 (Homo sapiens) (UniProt P0C1S8). The experiment in a line: Binding affinity to wild-type human partial length WEE2 (M204 to K492 residues) expressed in bacterial expression system assessed as residual binding level at 10 uM by Kinomescan method relative to control.
Assay [24] addresses Serine/threonine-protein kinase WNK4 (Homo sapiens) (UniProt Q96J92). As to the kind of experiment: Binding affinity to wild-type human partial length WNK4 (A31 to D461 residues) expressed in mammalian expression system assessed as residual binding level at 10 uM by Kinomescan method relative to control.

Chain of Fibroblast growth factor receptor 4 (Homo sapiens) (P22455 22-802 limits assumed): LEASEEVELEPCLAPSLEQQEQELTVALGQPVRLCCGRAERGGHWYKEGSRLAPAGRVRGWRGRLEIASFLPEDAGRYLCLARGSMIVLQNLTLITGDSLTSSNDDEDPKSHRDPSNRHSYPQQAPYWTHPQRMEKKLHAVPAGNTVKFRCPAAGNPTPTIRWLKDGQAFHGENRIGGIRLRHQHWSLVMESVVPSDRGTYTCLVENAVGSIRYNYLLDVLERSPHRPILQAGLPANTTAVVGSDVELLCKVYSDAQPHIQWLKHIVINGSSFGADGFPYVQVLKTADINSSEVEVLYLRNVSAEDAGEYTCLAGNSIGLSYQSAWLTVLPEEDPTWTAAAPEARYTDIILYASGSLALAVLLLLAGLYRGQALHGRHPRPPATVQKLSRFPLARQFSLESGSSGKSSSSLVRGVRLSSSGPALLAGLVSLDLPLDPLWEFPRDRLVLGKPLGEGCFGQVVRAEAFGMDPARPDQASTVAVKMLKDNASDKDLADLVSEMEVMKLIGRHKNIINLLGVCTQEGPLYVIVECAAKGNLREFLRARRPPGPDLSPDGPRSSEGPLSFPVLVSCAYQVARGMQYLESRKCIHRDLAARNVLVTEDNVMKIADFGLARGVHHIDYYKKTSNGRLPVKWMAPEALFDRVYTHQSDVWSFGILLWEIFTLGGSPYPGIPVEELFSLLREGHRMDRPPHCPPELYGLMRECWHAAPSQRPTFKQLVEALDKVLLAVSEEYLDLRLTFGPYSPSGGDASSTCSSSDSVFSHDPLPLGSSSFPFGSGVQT
Chain of Mast/stem cell growth factor receptor Kit (Homo sapiens) (P10721 whole entry, the tested form may be a part): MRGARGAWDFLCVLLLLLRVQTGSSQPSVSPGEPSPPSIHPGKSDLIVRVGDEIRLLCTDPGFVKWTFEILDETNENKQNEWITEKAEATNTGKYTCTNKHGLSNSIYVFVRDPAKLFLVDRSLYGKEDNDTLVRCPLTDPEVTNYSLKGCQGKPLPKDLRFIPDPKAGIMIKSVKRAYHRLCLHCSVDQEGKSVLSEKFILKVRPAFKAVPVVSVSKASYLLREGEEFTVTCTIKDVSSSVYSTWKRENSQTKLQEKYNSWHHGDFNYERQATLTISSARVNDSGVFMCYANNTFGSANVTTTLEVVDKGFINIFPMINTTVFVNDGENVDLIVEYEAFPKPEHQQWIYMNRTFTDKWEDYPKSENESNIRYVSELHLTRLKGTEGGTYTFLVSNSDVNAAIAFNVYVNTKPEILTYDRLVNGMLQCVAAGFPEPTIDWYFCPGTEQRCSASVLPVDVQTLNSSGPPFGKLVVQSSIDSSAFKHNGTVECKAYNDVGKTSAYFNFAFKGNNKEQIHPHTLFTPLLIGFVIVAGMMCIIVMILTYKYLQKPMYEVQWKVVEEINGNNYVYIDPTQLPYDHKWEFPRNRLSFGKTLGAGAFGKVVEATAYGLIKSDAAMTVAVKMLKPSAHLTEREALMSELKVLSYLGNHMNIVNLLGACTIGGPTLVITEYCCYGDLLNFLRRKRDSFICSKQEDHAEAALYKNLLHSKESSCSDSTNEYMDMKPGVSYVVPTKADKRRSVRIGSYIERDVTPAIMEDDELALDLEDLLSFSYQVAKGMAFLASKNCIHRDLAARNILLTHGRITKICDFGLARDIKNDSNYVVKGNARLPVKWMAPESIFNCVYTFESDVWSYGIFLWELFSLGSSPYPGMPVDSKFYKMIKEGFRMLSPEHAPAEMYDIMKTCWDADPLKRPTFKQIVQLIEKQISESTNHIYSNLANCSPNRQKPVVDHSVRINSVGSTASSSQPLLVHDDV
Chain of Phosphatidylinositol 5-phosphate 4-kinase type-2 beta (Homo sapiens) (P78356 whole entry, the tested form may be a part): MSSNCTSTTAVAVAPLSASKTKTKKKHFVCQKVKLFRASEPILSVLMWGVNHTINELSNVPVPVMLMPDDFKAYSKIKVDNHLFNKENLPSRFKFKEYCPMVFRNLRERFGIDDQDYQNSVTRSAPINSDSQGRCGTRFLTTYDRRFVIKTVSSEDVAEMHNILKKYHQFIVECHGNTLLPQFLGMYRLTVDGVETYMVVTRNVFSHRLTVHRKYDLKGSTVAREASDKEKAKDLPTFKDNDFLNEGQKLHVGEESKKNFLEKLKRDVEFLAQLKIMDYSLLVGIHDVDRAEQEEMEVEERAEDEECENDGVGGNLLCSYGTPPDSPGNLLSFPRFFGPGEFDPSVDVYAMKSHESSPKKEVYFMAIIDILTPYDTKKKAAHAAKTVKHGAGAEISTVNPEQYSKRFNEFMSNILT

`O=C(Nc1cc(-c2cn(CCNc3c4c(nc5ccccc35)CCCC4)nn2)ccn1)Nc1cccc2c1C1CCCCN1C2=O` (racemic): the Activity in assay [1] turned out to be 67%; in assay [2] it was 51%; in assay [3], 5.3%; in assay [4], 33%; in assay [5], 0.3%; in assay [6], 77%. Also, the Activity in assay [7] came to 100%; in [8], 0.8%; in [9], 21%; in assay [10], 7%; in assay [11] it was 99%; in [12], 62%. Moreover, the Activity in [13] was determined as 94%; in [14] it was 22%; in assay [15], 100%; in assay [16], 16%; in assay [17] it was 23%; in assay [18] it was 11%. In addition, the Activity in assay [19] was 30%; in assay [20], 47%; in assay [21], 19%; in assay [22], 43%; in [23] it was 100%; in [24] it was 100%.
